Columns and labels:
Format in all cases: in vivo
[1] = system: barnyardgrass (Echinochloa crus-galli, ECHCG); assay: Pre-emerge test, greenhouse herbicide activity screening; conditions: rated 14 days after application, 0 = no damage, 100 = complete death
Summary of the method: (§1)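 Compounds in acetone were track-sprayed at 15–1000 g ai/ha: pre-emergence onto soil sown the previous day, then top-watered to incorporate and later bottom-watered; post-emergence onto 2–3 leaf plants with 0.25% v/v surfactant, bottom-watered only. Ratings on a 0–100 phytotoxicity scale were taken at day 14.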

[2] = system: lambsquarters (Chenopodium album, CHEAL); assay: as above; conditions: rated 14 days after application, 0 = no damage, 100 = complete death
Summary of the method: as §1

[3] = system: velvetleaf (Abutilon theophrasti, ABUTH); assay: as above; conditions: rated 14 days after application, 0 = no damage, 100 = complete death
Summary of the method: as §1

[4] = system: ivyleaf morningglory (Ipomoea hederacea, IPOHE); assay: as above; conditions: rated 14 days after application, 0 = no damage, 100 = complete death
Summary of the method: as §1

[5] = system: green foxtail (Setaria viridis, SETVI); assay: as above; conditions: rated 14 days after application, 0 = no damage, 100 = complete death
Summary of the method: as §1

[6] = system: johnsongrass (Sorghum halepense, SORHA); assay: as above; conditions: rated 14 days after application, 0 = no damage, 100 = complete death
Summary of the method: as §1

[7] = system: large crabgrass (Digitaria sanguinalis, DIGSA); assay: as above; conditions: rated 14 days after application, 0 = no damage, 100 = complete death
Summary of the method: as §1

[8] = system: sicklepod (Cassia obtusifolia, CASOB); assay: as above; conditions: rated 14 days after application, 0 = no damage, 100 = complete death
Summary of the method: as §1

[9] = system: upland rice (Oryza sp., var. Tebonnet, RICE); assay: Pre-emerge test, crop safety; conditions: rated 14 days after application, 0 = no damage, 100 = complete death
Summary of the method: (§2)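 Compounds in acetone were track-sprayed at 15-1000 g ai/ha (187 l/ha) on sandy loam pots: pre-emerge one day after seeding, post-emerge at 2-3 leaf stage with 0.25% v/v non-ionic surfactant. Phytotoxicity was rated 14 days later on a 0 (no damage) to 100 (complete death) scale.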

[10] = system: field corn (Zea mays L., var. Dekalb 535, CORN); assay: Pre-emerge test, crop safety; conditions: rated 14 days after application, 0 = no damage, 100 = complete death
Summary of the method: as §2

[11] = system: redroot pigweed (Amaranthus retroflexus, AMARE); assay: Pre-emerge test, greenhouse herbicide activity screening; conditions: rated 14 days after application, 0 = no damage, 100 = complete death
Summary of the method: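 Visual ratings on a 0-100 scale (0 no damage, 100 all plants dead) were taken at 14 days after treatment. Rates of 15-1000 g ai/ha in acetone, 187 l/ha, were sprayed onto soil one day after planting (pre-emerge) or onto 2-3 leaf plants with 0.25% v/v surfactant (post-emerge).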

[12] = system: upland rice (Oryza sp., var. Tebonnet, RICE); assay: Post-emerge test, crop safety; conditions: post-emerge, 14 days after application, rating scale 0-100
Summary of the method: (§3)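 Rating: 0–100 visual injury, 14 DAA. Application: acetone, 187 l/ha, 15–1000 g ai/ha, flat-fan track sprayer with nozzle 40–45 cm above soil or canopy. Post-emerge runs used 0.25% v/v surfactant on 2–3 leaf plants.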

[13] = system: field corn (Zea mays L., var. Dekalb 535, CORN); assay: Post-emerge test, crop safety; conditions: post-emerge, 14 days after application, rating scale 0-100
Summary of the method: as §3

[14] = system: barnyardgrass (Echinochloa crus-galli, ECHCG); assay: Post-emerge test, greenhouse herbicide activity screening; conditions: post-emerge, 14 days after application, rating scale 0-100
Summary of the method: (§4)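 Fourteen days after spraying, crop and weed injury was graded visually from 0, no effect, to 100, every plant dead. Test substances were dissolved in acetone and applied at 15–1000 g ai/ha with a flat-fan nozzle. Application was either pre-emergence, one day after sowing, or post-emergence at the 2–3 leaf stage.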

[15] = system: lambsquarters (Chenopodium album, CHEAL); assay: as above; conditions: post-emerge, 14 days after application, rating scale 0-100
Summary of the method: as §4

[16] = system: velvetleaf (Abutilon theophrasti, ABUTH); assay: as above; conditions: post-emerge, 14 days after application, rating scale 0-100
Summary of the method: as §4

[17] = system: ivyleaf morningglory (Ipomoea hederacea, IPOHE); assay: as above; conditions: post-emerge, 14 days after application, rating scale 0-100
Summary of the method: as §4

[18] = system: redroot pigweed (Amaranthus retroflexus, AMARE); assay: as above; conditions: post-emerge, 14 days after application, rating scale 0-100
Summary of the method: as §4

[19] = system: green foxtail (Setaria viridis, SETVI); assay: as above; conditions: post-emerge, 14 days after application, rating scale 0-100
Summary of the method: as §4

[20] = system: johnsongrass (Sorghum halepense, SORHA); assay: as above; conditions: post-emerge, 14 days after application, rating scale 0-100
Summary of the method: as §4

[21] = system: large crabgrass (Digitaria sanguinalis, DIGSA); assay: as above; conditions: post-emerge, 14 days after application, rating scale 0-100
Summary of the method: as §4

[22] = system: sicklepod (Cassia obtusifolia, CASOB); assay: as above; conditions: post-emerge, 14 days after application, rating scale 0-100
Summary of the method: as §4

COc1c(Cl)cc(F)c(-n2c(=O)cc(C(F)(F)F)n(C)c2=O)c1NC(=O)C=Cc1ccccc1Cl [2-82]
Pre-emerge Herbicidal Activity, phytotoxicity rating (0-100), ECHCG ([1]; 63 g ai/ha): 0
Pre-emerge Herbicidal Activity, phytotoxicity rating (0-100), ECHCG ([1]; 250 g ai/ha): 0
Pre-emerge Herbicidal Activity, phytotoxicity rating (0-100), CHEAL ([2]; 63 g ai/ha): 100
Pre-emerge Herbicidal Activity, phytotoxicity rating (0-100), CHEAL ([2]; 250 g ai/ha): 100
Pre-emerge Herbicidal Activity, phytotoxicity rating (0-100), ABUTH ([3]; 63 g ai/ha): 100
Pre-emerge Herbicidal Activity, phytotoxicity rating (0-100), ABUTH ([3]; 250 g ai/ha): 100
Pre-emerge Herbicidal Activity, phytotoxicity rating (0-100), IPOHE ([4]; 63 g ai/ha): 0
Pre-emerge Herbicidal Activity, phytotoxicity rating (0-100), IPOHE ([4]; 250 g ai/ha): 0
Pre-emerge Herbicidal Activity, phytotoxicity rating (0-100), SETVI ([5]; 63 g ai/ha): 80
Pre-emerge Herbicidal Activity, phytotoxicity rating (0-100), SETVI ([5]; 250 g ai/ha): 100
Pre-emerge Herbicidal Activity, phytotoxicity rating (0-100), SORHA ([6]; 63 g ai/ha): 0
Pre-emerge Herbicidal Activity, phytotoxicity rating (0-100), SORHA ([6]; 250 g ai/ha): 20
Pre-emerge Herbicidal Activity, phytotoxicity rating (0-100), DIGSA ([7]; 63 g ai/ha): 30
Pre-emerge Herbicidal Activity, phytotoxicity rating (0-100), DIGSA ([7]; 250 g ai/ha): 80
Pre-emerge Herbicidal Activity, phytotoxicity rating (0-100), CASOB ([8]; 63 g ai/ha): 80
Pre-emerge Herbicidal Activity, phytotoxicity rating (0-100), CASOB ([8]; 250 g ai/ha): 100
Pre-emerge phytotoxicity rating (0-100), crop damage, RICE ([9]; 63 g ai/ha): 10
Pre-emerge phytotoxicity rating (0-100), crop damage, RICE ([9]; 250 g ai/ha): 10
Pre-emerge phytotoxicity rating (0-100), crop damage, CORN ([10]; 63 g ai/ha): 0
Pre-emerge phytotoxicity rating (0-100), crop damage, CORN ([10]; 250 g ai/ha): 0
Pre-emerge Herbicidal Activity, phytotoxicity rating (0-100), AMARE ([11]; 63 g ai/ha): 100
Pre-emerge Herbicidal Activity, phytotoxicity rating (0-100), AMARE ([11]; 250 g ai/ha): 100
phytotoxicity rating RICE ([12]; 63 g ai/ha): 50
phytotoxicity rating RICE ([12]; 250 g ai/ha): 40
phytotoxicity rating CORN ([13]; 63 g ai/ha): 10
phytotoxicity rating CORN ([13]; 250 g ai/ha): 25
phytotoxicity rating ECHCG ([14]; 63 g ai/ha): 20
phytotoxicity rating ECHCG ([14]; 250 g ai/ha): 30
phytotoxicity rating CHEAL ([15]; 63 g ai/ha): 90
phytotoxicity rating CHEAL ([15]; 250 g ai/ha): 90
phytotoxicity rating ABUTH ([16]; 63 g ai/ha): 100
phytotoxicity rating ABUTH ([16]; 250 g ai/ha): 100
phytotoxicity rating IPOHE ([17]; 63 g ai/ha): 60
phytotoxicity rating IPOHE ([17]; 250 g ai/ha): 90
phytotoxicity rating AMARE ([18]; 63 g ai/ha): 100
phytotoxicity rating AMARE ([18]; 250 g ai/ha): 100
phytotoxicity rating SETVI ([19]; 63 g ai/ha): 40
phytotoxicity rating SETVI ([19]; 250 g ai/ha): 50
phytotoxicity rating SORHA ([20]; 63 g ai/ha): 0
phytotoxicity rating SORHA ([20]; 250 g ai/ha): 30
phytotoxicity rating DIGSA ([21]; 63 g ai/ha): 0
phytotoxicity rating DIGSA ([21]; 250 g ai/ha): 30
phytotoxicity rating CASOB ([22]; 63 g ai/ha): 100
phytotoxicity rating CASOB ([22]; 250 g ai/ha): 100

COc1c(Cl)cc(F)c(-n2c(=O)cc(C(F)(F)F)n(C)c2=O)c1N(C(=O)C=Cc1ccccc1Cl)C(=O)C=Cc1ccccc1Cl [2-83]
Pre-emerge Herbicidal Activity, phytotoxicity rating (0-100), ECHCG ([1]; 63 g ai/ha): 0
Pre-emerge Herbicidal Activity, phytotoxicity rating (0-100), ECHCG ([1]; 250 g ai/ha): 0
Pre-emerge Herbicidal Activity, phytotoxicity rating (0-100), CHEAL ([2]; 63 g ai/ha): 30
Pre-emerge Herbicidal Activity, phytotoxicity rating (0-100), CHEAL ([2]; 250 g ai/ha): 90
Pre-emerge Herbicidal Activity, phytotoxicity rating (0-100), ABUTH ([3]; 63 g ai/ha): 10
Pre-emerge Herbicidal Activity, phytotoxicity rating (0-100), ABUTH ([3]; 250 g ai/ha): 100
Pre-emerge Herbicidal Activity, phytotoxicity rating (0-100), IPOHE ([4]; 63 g ai/ha): 0
Pre-emerge Herbicidal Activity, phytotoxicity rating (0-100), IPOHE ([4]; 250 g ai/ha): 0
Pre-emerge Herbicidal Activity, phytotoxicity rating (0-100), SETVI ([5]; 63 g ai/ha): 0
Pre-emerge Herbicidal Activity, phytotoxicity rating (0-100), SETVI ([5]; 250 g ai/ha): 40
Pre-emerge Herbicidal Activity, phytotoxicity rating (0-100), SORHA ([6]; 63 g ai/ha): 0
Pre-emerge Herbicidal Activity, phytotoxicity rating (0-100), SORHA ([6]; 250 g ai/ha): 20
Pre-emerge Herbicidal Activity, phytotoxicity rating (0-100), DIGSA ([7]; 63 g ai/ha): 0
Pre-emerge Herbicidal Activity, phytotoxicity rating (0-100), DIGSA ([7]; 250 g ai/ha): 30
Pre-emerge Herbicidal Activity, phytotoxicity rating (0-100), CASOB ([8]; 63 g ai/ha): 0
Pre-emerge Herbicidal Activity, phytotoxicity rating (0-100), CASOB ([8]; 250 g ai/ha): 0
Pre-emerge phytotoxicity rating (0-100), crop damage, RICE ([9]; 63 g ai/ha): 0
Pre-emerge phytotoxicity rating (0-100), crop damage, RICE ([9]; 250 g ai/ha): 0
Pre-emerge phytotoxicity rating (0-100), crop damage, CORN ([10]; 63 g ai/ha): 0
Pre-emerge phytotoxicity rating (0-100), crop damage, CORN ([10]; 250 g ai/ha): 0
Pre-emerge Herbicidal Activity, phytotoxicity rating (0-100), AMARE ([11]; 63 g ai/ha): 60
Pre-emerge Herbicidal Activity, phytotoxicity rating (0-100), AMARE ([11]; 250 g ai/ha): 100
phytotoxicity rating RICE ([12]; 63 g ai/ha): 100
phytotoxicity rating RICE ([12]; 250 g ai/ha): 0
phytotoxicity rating CORN ([13]; 63 g ai/ha): 0
phytotoxicity rating CORN ([13]; 250 g ai/ha): 0
phytotoxicity rating ECHCG ([14]; 63 g ai/ha): 0
phytotoxicity rating ECHCG ([14]; 250 g ai/ha): 0
phytotoxicity rating CHEAL ([15]; 63 g ai/ha): 20
phytotoxicity rating CHEAL ([15]; 250 g ai/ha): 50
phytotoxicity rating ABUTH ([16]; 63 g ai/ha): 50
phytotoxicity rating ABUTH ([16]; 250 g ai/ha): 70
phytotoxicity rating IPOHE ([17]; 63 g ai/ha): 10
phytotoxicity rating IPOHE ([17]; 250 g ai/ha): 20
phytotoxicity rating AMARE ([18]; 63 g ai/ha): 40
phytotoxicity rating AMARE ([18]; 250 g ai/ha): 90
phytotoxicity rating SETVI ([19]; 63 g ai/ha): 0
phytotoxicity rating SETVI ([19]; 250 g ai/ha): 0
phytotoxicity rating SORHA ([20]; 63 g ai/ha): 0
phytotoxicity rating SORHA ([20]; 250 g ai/ha): 0
phytotoxicity rating DIGSA ([21]; 63 g ai/ha): 0
phytotoxicity rating DIGSA ([21]; 250 g ai/ha): 0
phytotoxicity rating CASOB ([22]; 63 g ai/ha): 0
phytotoxicity rating CASOB ([22]; 250 g ai/ha): 0
